According to patent publication US20040235666A1, “Substituted imidates as pesticidal agents” (priority 2001, published 2004):

system: not listed separately; test: log P determination by HPLC (EEC Directive 79/831 Annex V.A8, reversed-phase C18); format: physicochemical; details: reversed-phase C18 HPLC column, C18, 43° C., 0.1% aqueous phosphoric acid/acetonitrile gradient
Description: The log P values given in Table 1 were determined in accordance with EEC Directive 79/831 Annex V.A8 by HPLC (High Performance Liquid Chromatography) using a reversed-phase column (C18). Temperature: 43° C. Mobile phase: 0.1% aqueous phosphoric acid, acetonitrile; linear gradient from 10% acetonitrile to 90% acetonitrile Calibration was carried out using unbranched alkan-2-ones (having 3 to 16 C atoms) with known log P values. (Determination of the log P values by the retention times using linear interpolation between two successive alkanones).

Row | Structure (SMILES) | chromatographic logP
1 | CSc1ccc(Oc2cccc(CCN3CCSC3=NC#N)c2)cc1 [Example 21] | 3.29
2 | N#CN=C1SCCN1C1Cc2ccc(Cl)cc2C1 (stereo not drawn) [Example 33] | 2.68
3 | CC(c1ccc(Cl)cc1)N1CCCN/C1=N\C(N)=S (stereo not drawn) [Example 41] | 1.48
4 | CC(c1ccc(Cl)cc1)N1CCCN(C)/C1=N\C(N)=S (stereo not drawn) [Example 43] | 1.48
5 | CSc1ccc(Oc2ccccc2CCN2CCS/C2=N\C#N)cc1 [Example 45] | 3.33
6 | CC(=O)Oc1ccc(CCN2CCS/C2=N\C#N)cc1 [Example 46] | 1.89
7 | CC(c1ccc(Cl)cc1Cl)N1CCCO/C1=N\C#N (stereo not drawn) [Example 47] | 2.43
8 | CC(c1ccc(Cl)c(Cl)c1)N1CCCO/C1=N\C#N (stereo not drawn) [Example 48] | 2.59

Further lines, results first:

Row | chromatographic logP | Structure (SMILES)
9 | 2.09 | CCc1ccc(C(C)N2CCSC2=NC#N)cc1 (stereo not drawn) [Example 7]
10 | 3.06 | Cc1ccc(C(C)N2CCSC2=NC#N)cc1 (stereo not drawn) [Example 12]
11 | 2.84 | CC(c1ccc(Cl)c(Cl)c1)N1CCSC1=NC#N (stereo not drawn) [Example 13]
12 | 3.11 | CC(C)c1ccc(C(C)N2CCSC2=NC#N)cc1 (stereo not drawn) [Example 15]
13 | 2.41 | N#CN=C1SCCN1C(CF)c1ccc(Cl)cc1 (stereo not drawn) [Example 18]
14 | 2.29 | CC(c1ccc(Cl)cc1)N1CCN(C)C1=NC#N (stereo not drawn) [Example 23]
15 | 2.23 | CC(c1ccc(Cl)cc1)N1CCCN(C)C1=NC#N (stereo not drawn) [Example 28]
16 | 2.81 | CCC(c1ccc(Cl)cc1)N1CCS/C1=N\C#N (stereo not drawn) [Example 39]
17 | 1.86 | CC(c1ccc(Cl)cc1)N1CC[S+]([O-])/C1=N\C#N (stereo not drawn) [Example 40]
18 | 2.21 | CC(c1ccc(Cl)cc1)N1OCCN(C)/C1=N\C#N (stereo not drawn) [Example 42]
19 | 2.65 | CC1CN/C(=N\C#N)N(C(C)c2ccc(Cl)cc2)C1 (stereo not drawn) [Example 49]
20 | 2.52 | CC1CN(C)/C(=N\C#N)N(C(C)c2ccc(Cl)cc2)C1 (stereo not drawn) [Example 50]
21 | 2.63 | CC(c1ccc(Cl)cc1)N1CSCC/C1=N\C#N (stereo not drawn) [Example 51]
22 | 2.28 | CC(c1ccc(Cl)cc1)N1COCC/C1=N\C#N (stereo not drawn) [Example 52]

system: Meloidogyne incognita larvae; test: Meloidogyne test/aqueous system; format: in vivo; details: 40 ppm; nematicidal action by activity of the larvae; 96-well plate; 100% = no activity found
Description: Meloidogyne Test/Aqueous System To prepare a suitable preparation of active compound, 1 part by weight of active compound is mixed with 1 000 parts by weight of methanol, and per preparation to be tested, 10 μl are added to a well of a 96-well plate (from Greiner), where the solvent evaporates. In the 96-well plates, the wells containing the active compound are filled with lecithin solution (0.01%) and Meloidogyne incognita larvae suspension. The concentration of active compound is now 40 ppm. After the time indicated in the table, the nematicidal action is determined in % by the activity of the larvae. 100% means that no activity has been found; 0% means that the activity in the treated wells corresponds to that of the untreated control.

Row | Structure (SMILES) | Effect in % after 4 days [%]
23 | CC(c1ccc(Cl)cc1)N1CCSC1=NC#N (stereo not drawn) [Example 14] | 100

system: Meloidogyne incognita egg/larvae; test: Meloidogyne test (sand, lettuce, gall formation); format: in vivo; details: 20 ppm; nematicidal action by gall formation on lettuce roots; 100% = no galls
Description: To prepare a suitable preparation of active compound, 1 part by weight of active compound is mixed with 30 parts by weight of dimethylformamide and 1 part by weight of emulsifier (alllylaryl polyglycol ether), and the concentrate is diluted with water to the desired concentration.
Containers are filled with sand, solution of active compound, Meloidogyne incognita egg/larvae suspension and lettuce seeds. The lettuce seeds germinate and the plants develop. On the roots, galls are formed.
After the period of time indicated in the table, the nematicidal action is determined in % using gall formation as a measure. 100% means that no galls were found; 0% means that the number of galls on the treated plants corresponds to that of the untreated control.
In this test, for example, the following compounds of the Preparation Examples show good activity: […]

Row | Structure (SMILES) | Effect in % after 4 days [%]
24 | CC(c1ccc(Cl)cc1)N1CCNC1=NC#N (stereo not drawn) [Example 1, 1-[1-(4-Chlorophenyl)ethyl]-2-imidazolidinylidenecyanamide] | 98
25 | CC(c1ccccc1Cl)N1CCSC1=NC#N (stereo not drawn) [Example 3] | 100
26 | CCC(c1ccccc1Cl)N1CCSC1=NC#N (stereo not drawn) [Example 4] | 100
27 | CC(c1ccc(Cl)cc1)N1CCSC1=NC#N (stereo not drawn) [Example 14] | 100
28 | CC(c1ccc(Cl)cc1)N1CCCC1=NC#N (stereo not drawn) [Example 22] | 100
29 | CC(c1ccc(Cl)cc1)N1CCN(C)C1=NC#N (stereo not drawn) [Example 23] | 90
30 | CC(c1ccc(Cl)cc1)N1CCCN(C)C1=NC#N (stereo not drawn) [Example 28] | 95
